Marks after values point to notes of the source that are not given here.
Tested on: male rats
Assay: Plasma metabolite profiling (GC-MS, LC-MS, SPE-LC-MS) in male rats dosed once daily over 28 days (OECD 407)
Assay type: in vivo, rat
Conditions: high dose; for 3-Methoxytyrosine / 3-O-Methylsphingosine (d18:1) / 5-O-Methylsphingosine (d18:1) / Androstenedione / Arachidonic acid (C20:cis[5,8,11,14]4) / Behenic acid (C22:0) / Cholesterol / Cysteine / Dodecanol / Eicosanoic acid (C20:0) / Galactose, lipid fraction / Glycerol phosphate, lipid fraction / Histidine / Indole-3-lactic acid / Lignoceric acid (C24:0) / Nervonic acid (C24:cis[15]1) / Noradrenaline (Norepinephrine) / Phosphate, lipid fraction / Phosphatidylcholine (C18:0, C18:2) / Phosphatidylcholine (C18:0, C20:3) / Phosphatidylcholine (C18:0, C22:6) / Phosphatidylcholine (C18:0,C18:1) / Phytosphingosine / Stearic acid (C18:0) / Testosterone / Threonine / Tricosanoic acid (C23:0) / Tryptophan / alpha-Tocopherol / beta-Sitosterol / dihomo-gamma-Linolenic acid (C20:cis[8,11,14]3) / erythro-Sphingosine (d18:1) / myo-Inositol-2-phosphate, lipid fraction / threo-Sphingosine (d18:1): Table 11a
In short: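 Polar and lipid fractions profiled by GC-MS and LC-MS/MRM, steroids by online SPE-LC-MS; pool-normalized data compared to controls by Welch test as treatment ratios and p-values.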

CC(=O)O[C@]1(C(C)=O)CC[C@H]2[C@@H]3C=C(Cl)C4=CC(=O)[C@@H]5C[C@@H]5[C@]4(C)[C@H]3CC[C@@]21C [Cyproteron Acetate]
3-Methoxytyrosine (m7): 1.37 * | 3-O-Methylsphingosine (d18:1) (m7): 1.73 * | 5-O-Methylsphingosine (d18:1) (m7): 1.83 * | Androstenedione (m7): 4.65^ | Arachidonic acid (C20:cis[5,8,11,14]4) (m7): 1.35 * | Behenic acid (C22:0) (m7): 1.38 * | Cholesterol (m7): 1.33 * | Cysteine (m7): 1.3 * | Dodecanol (m7): 1.26 * | Eicosanoic acid (C20:0) (m7): 1.06^ | Galactose, lipid fraction (m7): 1.37 * | Glycerol phosphate, lipid fraction (m7): 1.57 * | Histidine (m7): 1.39 * | Indole-3-lactic acid (m7): 1.13 * | Lignoceric acid (C24:0) (m7): 1.46 * | Nervonic acid (C24:cis[15]1) (m7): 1.69 * | Noradrenaline (Norepinephrine) (m7): 1.61 * | Phosphate, lipid fraction (m7): 1.32 * | Phosphatidylcholine (C18:0, C18:2) (m7): 1.04 * | Phosphatidylcholine (C18:0, C20:3) (m7): 1.03^ | Phosphatidylcholine (C18:0, C22:6) (m7): 1.31 * | Phosphatidylcholine (C18:0,C18:1) (m7): 1.09 * | Phytosphingosine (m7): 1.05^ | Stearic acid (C18:0) (m7): 1.44 * | Testosterone (m7): 3.32^ | Threonine (m7): 1.78 * | Tricosanoic acid (C23:0) (m7): 1.48 * | Tryptophan (m7): 1.1 * | alpha-Tocopherol (m7): 1.22 * | beta-Sitosterol (m7): 2.11 * | dihomo-gamma-Linolenic acid (C20:cis[8,11,14]3) (m7): 1.66 * | erythro-Sphingosine (d18:1) (m7): 1.68 * | myo-Inositol-2-phosphate, lipid fraction (m7): 1.65 * | threo-Sphingosine (d18:1) (m7): 1.39 * | 3-Hydroxybutyrate (m7, Table 11b): 0.58 * | 4-Hydroxy-3-methoxyphenylglycol (HMPG) (m7, Table 11b): 1.11^ | 18-Hydroxy-11-deoxycorticosterone (m7, Table 11b): 0.03 * | 21-Hydroxyprogesterone (11-Deoxycorticosterone) (m7, Table 11b): 0.3 * | Citrate (m7, Table 11b): 1.24^ | Coenzyme Q9 (m7, Table 11b): 0.58 * | Coenzyme Q10 (m7, Table 11b): 0.49 * | Corticosterone (m7, Table 11b): 0.04 * | Metanephrine (m7, Table 11b): 0.91^ | Palmitoleic acid (C16:cis[9]1) (m7, Table 11b): 0.88 * | Phosphatidylcholine (C16:0, C16:0) (m7, Table 11b): 0.78 * | Progesterone (m7, Table 11b): 0.4 * | trans-4-Hydroxyproline (m7, Table 11b): 0.53 * | 3-Methoxytyrosine (m14): 1.81 * | 3-O-Methylsphingosine (d18:1) (m14): 2.19 * | 5-O-Methylsphingosine (d18:1) (m14): 2.18 * | Androstenedione (m14): 3.8 * | Arachidonic acid (C20:cis[5,8,11,14]4) (m14): 2.03 * | Behenic acid (C22:0) (m14): 1.52 * | Cholesterol (m14): 1.63 * | Cysteine (m14): 1.28 * | Dodecanol (m14): 1.71 * | Eicosanoic acid (C20:0) (m14): 1.15 | Galactose, lipid fraction (m14): 2.57 * | Glycerol phosphate, lipid fraction (m14): 2.05 * | Histidine (m14): 1.17 | Indole-3-lactic acid (m14): 1.15 * | Lignoceric acid (C24:0) (m14): 1.78 * | Nervonic acid (C24:cis[15]1) (m14): 2.55 * | Noradrenaline (Norepinephrine) (m14): 1.22 | Phosphate, lipid fraction (m14): 1.8 * | Phosphatidylcholine (C18:0, C18:2) (m14): 1.04 | Phosphatidylcholine (C18:0, C20:3) (m14): 1.16 * | Phosphatidylcholine (C18:0, C22:6) (m14): 1.5 * | Phosphatidylcholine (C18:0,C18:1) (m14): 1.48 * | Phytosphingosine (m14): 1.23 * | Stearic acid (C18:0) (m14): 2.3 * | Testosterone (m14): 2.63 * | Threonine (m14): 2.58 * | Tricosanoic acid (C23:0) (m14): 1.3 * | Tryptophan (m14): 1.11 * | alpha-Tocopherol (m14): 1.32 * | beta-Sitosterol (m14): 2.16 * | dihomo-gamma-Linolenic acid (C20:cis[8,11,14]3) (m14): 2.78 * | erythro-Sphingosine (d18:1) (m14): 1.92 * | myo-Inositol-2-phosphate, lipid fraction (m14): 2.78 * | threo-Sphingosine (d18:1) (m14): 2 * | 3-Hydroxybutyrate (m14, Table 11b): 0.73 * | 4-Hydroxy-3-methoxyphenylglycol (HMPG) (m14, Table 11b): 0.99^ | 18-Hydroxy-11-deoxycorticosterone (m14, Table 11b): 0.01 *
